Values of other authors, collected in patent US20240141352A1, “CHAPERONIN-CONTAINING TCP-1 INHIBITORS FOR THE TREATMENT OF CANCER” (UNIVERSITY OF CENTRAL FLORIDA RESEARCH FOUNDATION, INC., priority 2021, published 2024).

Assays:
MDA-MB-231 cells = conditions: MDA-MB-231 spheroids
[1] = tested on: cancer cells that highly express CCT
CCT2 subunit = target: T1, CCT2 subunit (Homo sapiens, UniProt P78371)
T1 sequence (P78371 1-535): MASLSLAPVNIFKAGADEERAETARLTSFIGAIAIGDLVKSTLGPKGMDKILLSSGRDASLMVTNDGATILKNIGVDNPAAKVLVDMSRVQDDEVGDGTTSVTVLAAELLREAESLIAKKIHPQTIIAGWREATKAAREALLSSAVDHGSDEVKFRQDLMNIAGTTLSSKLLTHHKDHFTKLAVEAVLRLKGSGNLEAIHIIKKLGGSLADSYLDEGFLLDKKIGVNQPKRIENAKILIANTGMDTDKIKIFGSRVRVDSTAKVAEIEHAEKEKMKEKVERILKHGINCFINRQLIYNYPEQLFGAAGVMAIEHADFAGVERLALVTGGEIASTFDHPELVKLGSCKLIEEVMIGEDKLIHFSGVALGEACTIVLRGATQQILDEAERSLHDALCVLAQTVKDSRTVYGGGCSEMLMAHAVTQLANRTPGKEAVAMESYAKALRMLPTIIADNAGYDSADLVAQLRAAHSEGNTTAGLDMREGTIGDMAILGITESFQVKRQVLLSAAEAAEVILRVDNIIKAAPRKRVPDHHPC

[2] = tested on: breast and prostate tumors; conditions: systemic delivery with polymeric nanoparticles

Row | binding to CCT2 subunit (CCT2 subunit) | Compound | resistance of spheroids to treatment (MDA-MB-231 cells) | cytotoxicity [1] | tumor regression [2]
1 | – | N.N.O=C([O-])C1(C(=O)[O-])CCC1.[Pt+2] [carboplatin] | increased resistance | – | –
2 | – | COc1cccc2c1C(=O)c1c(O)c3c(c(O)c1C2=O)C[C@@](O)(C(=O)CO)C[C@@H]3O[C@H]1C[C@H](N)[C@H](O)[C@H](C)O1 [doxorubicin] | increased resistance | – | –
3 | directly binds | VTIFVAGVLTASLTIWKKMG [CT20p] | – | cytotoxic | regression
